# Results from US4178442A, “Novel cinnamoyles piperazines and homopiperazines, the method of preparing them and their application in therapeutics” (Delalande S. A., priority 1977, dated 1979).
# Like-named read-outs stand apart in the source and are kept apart here.
# Columns and labels:
# anaesthetized dog = experiment: Antiangorous activity on anaesthetized dog: consumption of oxygen in the left ventricule and cardiac effort (KATZ's index); format: in vivo; conditions: for inhibition in vivo at 2.5 mg/kg / inhibition in vivo at 2.4 mg/kg / inhibition in vivo at 0.625 mg/kg / inhibition in vivo at 4.6 mg/kg / inhibition in vivo at 0.12 mg/kg / inhibition in vivo at 2.3 mg/kg / inhibition in vivo at 1.25 mg/kg / inhibition in vivo at 0.6 mg/kg: Canis lupus familiaris, iv
# Experimental: The antiangorous activity was tested on an anaesthetized dog (sodium pentobarbital 30 mg/kg/i.v.).
# The consumption of oxygen in the left ventricule was estimated by the product of the coronary venous flow and the coronary arteriovenous difference in oxygen (% volume).
# The coronary venous flow was measured at the coronary venous sinus by means of a modified Morawitz cannula, introduced under radioscopic control.
# The cardiac effort was estimated according to KATZ's index, by the product of the average arterial pressure and the cardiac frequency.
# The cardiac frequency was estimated from the electrocardiogram recorded with D2 derivation.
# It should be noted that the compounds tested were injected intravenously with slow perfusion.
# in vivo = conditions: for LD50: read-out: Toxicity: LD50; for mortality: read-out: Toxicity (Mortality)
# Excerpt: *LD50 or percentage of mortality which is given between brackets
# [1] = 2.5 mg/kg i.v. slow perfusion, read-out: Diminution in consumption of O2
# [2] = 2.5 mg/kg i.v. slow perfusion, read-out: Diminution in the cardiac effort (IK)
# [3] = 0.625 mg/kg i.v. slow perfusion
# [4] = 2.3 mg/kg i.v. slow perfusion, read-out: Diminution in consumption of O2
# [5] = 2.3 mg/kg i.v. slow perfusion, read-out: Diminution in the cardiac effort (IK)
compound,measurement,setting,value
COc1cc(/C=C/C(=O)N2CCCN(CC(O)COc3ccc(C(C)=O)cc3)CC2)cc(OC)c1OC (stereo not drawn) [780 415],Diminution in consumption of O2: in time,anaesthetized dog; 2.5 mg/kg i.v. slow perfusion,30 min
same,Diminution in the cardiac effort (IK): in time,anaesthetized dog; 2.5 mg/kg i.v. slow perfusion,30 min
same,inhibition in vivo at 2.5 mg/kg,anaesthetized dog; [1],29%
same,inhibition in vivo at 2.5 mg/kg,anaesthetized dog; [2],10%
same,LD50,in vivo; iv,305 mg/kg
COc1cc(/C=C/C(=O)N2CCN(CC(O)COc3cc(OC)c(OC)c(OC)c3C(C)=O)CC2)cc(OC)c1OC (stereo not drawn) [760 781],Diminution in consumption of O2: in time,anaesthetized dog; 2.4 mg/kg i.v. slow perfusion,90 min
same,Diminution in the cardiac effort (IK): in time,anaesthetized dog; 2.4 mg/kg i.v. slow perfusion,45 min
same,inhibition in vivo at 2.4 mg/kg,"anaesthetized dog; 2.4 mg/kg i.v. slow perfusion, read-out: Diminution in consumption of O2",70%
same,inhibition in vivo at 2.4 mg/kg,"anaesthetized dog; 2.4 mg/kg i.v. slow perfusion, read-out: Diminution in the cardiac effort (IK)",15%
same,mortality,"in vivo; iv, 377 mg/kg i.v.",0%
COc1cc(/C=C/C(=O)N2CCN(CC(O)COc3ccc(NC(=O)C(C)(C)C)c4c3OCCO4)CC2)cc(OC)c1OC (stereo not drawn) [770 614],Diminution in consumption of O2: in time,anaesthetized dog; [3],30 min
same,Diminution in the cardiac effort (IK): in time,anaesthetized dog; [3],30 min
same,inhibition in vivo at 0.625 mg/kg,"anaesthetized dog; 0.625 mg/kg i.v. slow perfusion, read-out: Diminution in consumption of O2",49%
same,inhibition in vivo at 0.625 mg/kg,"anaesthetized dog; 0.625 mg/kg i.v. slow perfusion, read-out: Diminution in the cardiac effort (IK)",45%
same,mortality,"in vivo; po, p.o.: 2000 mg/kg",11%
COc1cc(/C=C/C(=O)N2CCN(CC(O)COc3ccc(SC)cc3)CC2)cc(OC)c1OC (stereo not drawn) [760 507],Diminution in consumption of O2: in time,anaesthetized dog; 4.6 mg/kg i.v. slow perfusion,60 min
same,Diminution in the cardiac effort (IK): in time,anaesthetized dog; 4.6 mg/kg i.v. slow perfusion,30 min
same,inhibition in vivo at 4.6 mg/kg,"anaesthetized dog; 4.6 mg/kg i.v. slow perfusion, read-out: Diminution in consumption of O2",68%
same,inhibition in vivo at 4.6 mg/kg,"anaesthetized dog; 4.6 mg/kg i.v. slow perfusion, read-out: Diminution in the cardiac effort (IK)",32%
same,LD50,in vivo; iv,185 mg/kg
COc1cc(C(C)=O)ccc1OCC(O)CN1CCN(C(=O)/C=C/c2cc(OC)c(OC)c(OC)c2)CC1 (stereo not drawn) [770 073],Diminution in consumption of O2: in time,anaesthetized dog; 0.12 mg/kg i.v. slow perfusion,30 min
same,Diminution in the cardiac effort (IK): in time,anaesthetized dog; 0.12 mg/kg i.v. slow perfusion,15 min
same,inhibition in vivo at 0.12 mg/kg,"anaesthetized dog; 0.12 mg/kg i.v. slow perfusion, read-out: Diminution in consumption of O2",24%
same,inhibition in vivo at 0.12 mg/kg,"anaesthetized dog; 0.12 mg/kg i.v. slow perfusion, read-out: Diminution in the cardiac effort (IK)",16%
same,LD50,in vivo; iv,158 mg/kg
COc1cccc(SCC(O)CN2CCN(C(=O)/C=C/c3cc(OC)c(OC)c(OC)c3)CC2)c1 (stereo not drawn) [770 112],Diminution in consumption of O2: in time,anaesthetized dog; 2.3 mg/kg i.v. slow perfusion,23 min
same,Diminution in the cardiac effort (IK): in time,anaesthetized dog; 2.3 mg/kg i.v. slow perfusion,15 min
same,inhibition in vivo at 2.3 mg/kg,anaesthetized dog; [4],34%
same,inhibition in vivo at 2.3 mg/kg,anaesthetized dog; [5],7%
same,LD50,in vivo; iv,224 mg/kg
CCCC(=O)Nc1ccc(OCC(O)CN2CCN(C(=O)/C=C/c3cc(OC)c(OC)c(OC)c3)CC2)cc1 (stereo not drawn) [760 892],Diminution in consumption of O2: in time,anaesthetized dog; 2.5 mg/kg i.v. slow perfusion,60 min
same,Diminution in the cardiac effort (IK): in time,anaesthetized dog; 2.5 mg/kg i.v. slow perfusion,45 min
same,inhibition in vivo at 2.5 mg/kg,anaesthetized dog; [1],74%
same,inhibition in vivo at 2.5 mg/kg,anaesthetized dog; [2],22%
same,mortality,"in vivo; iv, 400 mg/kg i.v.",40%
COc1cc(/C=C/C(=O)N2CCN(CC(O)COc3c(OC)cccc3OC)CC2)cc(OC)c1OC (stereo not drawn) [760 580],Diminution in consumption of O2: in time,anaesthetized dog; 2.3 mg/kg i.v. slow perfusion,30 min
same,Diminution in the cardiac effort (IK): in time,anaesthetized dog; 2.3 mg/kg i.v. slow perfusion,15 min
same,inhibition in vivo at 2.3 mg/kg,anaesthetized dog; [4],19%
same,inhibition in vivo at 2.3 mg/kg,anaesthetized dog; [5],26%
same,LD50,in vivo; iv,294 mg/kg
COc1cc(/C=C/C(=O)N2CCN(CC(O)COc3ccc(Cl)cc3)CC2)cc(OC)c1OC (stereo not drawn) [760 476],Diminution in consumption of O2: in time,anaesthetized dog; 2.3 mg/kg i.v. slow perfusion,23 min
same,Diminution in the cardiac effort (IK): in time,anaesthetized dog; 2.3 mg/kg i.v. slow perfusion,15 min
same,inhibition in vivo at 2.3 mg/kg,anaesthetized dog; [4],70%
same,inhibition in vivo at 2.3 mg/kg,anaesthetized dog; [5],5%
same,LD50,in vivo; iv,185 mg/kg
COc1cc(/C=C/C(=O)N2CCN(CC(O)COc3ccc(OC(C)=O)c4c3OCCO4)CC2)cc(OC)c1OC (stereo not drawn) [780 004],Diminution in consumption of O2: in time,anaesthetized dog; 1.25 mg/kg i.v. slow perfusion,30 min
same,Diminution in the cardiac effort (IK): in time,anaesthetized dog; 1.25 mg/kg i.v. slow perfusion,15 min
same,inhibition in vivo at 1.25 mg/kg,"anaesthetized dog; 1.25 mg/kg i.v. slow perfusion, read-out: Diminution in consumption of O2",22%
same,inhibition in vivo at 1.25 mg/kg,"anaesthetized dog; 1.25 mg/kg i.v. slow perfusion, read-out: Diminution in the cardiac effort (IK)",14%
same,mortality,"in vivo; iv, 400 mg/kg i.v.",10%
COc1cc(OC)cc(OCC(O)CN2CCN(C(=O)/C=C/c3cc(OC)c(OC)c(OC)c3)CC2)c1 (stereo not drawn) [760 620],Diminution in consumption of O2: in time,anaesthetized dog; 2.5 mg/kg i.v. slow perfusion,30 min
same,Diminution in the cardiac effort (IK): in time,anaesthetized dog; 2.5 mg/kg i.v. slow perfusion,30 min
same,inhibition in vivo at 2.5 mg/kg,anaesthetized dog; [1],22%
same,inhibition in vivo at 2.5 mg/kg,anaesthetized dog; [2],10%
same,LD50,in vivo; iv,285 mg/kg
COc1cc(NC(C)=O)ccc1OCC(O)CN1CCN(C(=O)/C=C/c2cc(OC)c(OC)c(OC)c2)CC1 (stereo not drawn) [770 487],Diminution in consumption of O2: in time,anaesthetized dog; 2.5 mg/kg i.v. slow perfusion,60 min
same,inhibition in vivo at 2.5 mg/kg,anaesthetized dog; [1],47%
same,inhibition in vivo at 2.5 mg/kg,anaesthetized dog; [2],14%
same,mortality,"in vivo; iv, 400 mg/kg i.v.",30%
CCOC(=O)c1ccc(OCC(O)CN2CCN(C(=O)/C=C/c3cc(OC)c(OC)c(OC)c3)CC2)c2c1OCCO2 (stereo not drawn) [760 700],Diminution in consumption of O2: in time,anaesthetized dog; 0.6 mg/kg i.v. slow perfusion,45 min
same,Diminution in the cardiac effort (IK): in time,anaesthetized dog; 0.6 mg/kg i.v. slow perfusion,60 min
same,inhibition in vivo at 0.6 mg/kg,"anaesthetized dog; 0.6 mg/kg i.v. slow perfusion, read-out: Diminution in consumption of O2",59%
same,inhibition in vivo at 0.6 mg/kg,"anaesthetized dog; 0.6 mg/kg i.v. slow perfusion, read-out: Diminution in the cardiac effort (IK)",47%
same,mortality,"in vivo; iv, 367 mg/kg i.v.",0%
CNC(=O)Nc1ccc(OCC(O)CN2CCN(C(=O)/C=C/c3cc(OC)c(OC)c(OC)c3)CC2)c2c1CCCC2 (stereo not drawn) [771 157],Diminution in consumption of O2: in time,anaesthetized dog; 2.5 mg/kg i.v. slow perfusion,30 min
same,Diminution in the cardiac effort (IK): in time,anaesthetized dog; 2.5 mg/kg i.v. slow perfusion,30 min
same,inhibition in vivo at 2.5 mg/kg,anaesthetized dog; [1],53%
same,inhibition in vivo at 2.5 mg/kg,anaesthetized dog; [2],46%
same,LD50,in vivo; iv,210 mg/kg
